By IC50 is commonly meant the concentration that gives 50% inhibition. Usually % Inhibition stands for how much of the control response was suppressed.

T1 sequence (P12931 whole entry): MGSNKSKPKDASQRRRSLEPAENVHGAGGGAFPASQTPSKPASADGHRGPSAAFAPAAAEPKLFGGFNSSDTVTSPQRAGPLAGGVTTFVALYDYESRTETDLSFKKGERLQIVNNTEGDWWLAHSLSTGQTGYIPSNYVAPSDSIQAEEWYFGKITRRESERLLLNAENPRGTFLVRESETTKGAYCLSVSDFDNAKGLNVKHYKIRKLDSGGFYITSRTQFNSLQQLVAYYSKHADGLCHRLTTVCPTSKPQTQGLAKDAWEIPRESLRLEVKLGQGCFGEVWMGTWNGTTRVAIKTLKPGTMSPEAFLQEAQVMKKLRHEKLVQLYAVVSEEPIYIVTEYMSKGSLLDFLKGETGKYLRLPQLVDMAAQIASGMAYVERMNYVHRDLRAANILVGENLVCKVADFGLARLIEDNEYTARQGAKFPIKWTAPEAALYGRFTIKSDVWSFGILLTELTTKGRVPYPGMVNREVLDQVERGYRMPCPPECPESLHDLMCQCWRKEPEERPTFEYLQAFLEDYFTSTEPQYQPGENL

The first test has as its target T1, Recombinant human Src (Homo sapiens, UniProt P12931).
T1 construct: made in house; host or cells: baculovirus-insect cell system
Nature of the test: Src tyrosine kinase activity, poly E4Y / 32P-ATP phosphorylation assay. It is filed as biochemical. The following applies: Table 3, Formula II compounds; NI = no inhibition at 100 μg/mL. The method, then: Recombinant human Src was expressed using the baculovirus-insect cell system and purified as published (Budde et al., 1993 and 2000).
The tyrosine kinase activity of Src, Csk and FGFr was determined using poly E4Y and ^32P-ATP. Briefly, enzymes were assayed in a reaction mixture consisting of 0.15 M EPPS-NaOH (pH 8.0) with 6 mM MgCl2, 0.2 mM γ^32P-ATP (0.2-0.4 mCi/μmol), 10% glycerol, 0.1% Triton X-100, and poly E4Y. Poly E4Y is a synthetic peptide whose phosphorylation is measured in this assay by the addition of the radioactively labeled phosphate from the ATP (Budde et al., 1995). […] When ATP was varied (0, 50, 100 and 250 μM), poly E4Y was kept constant at 150 μg/ml.
Regarding `Cc1ccc(S(=O)(=O)Nc2ccc(C(=NOCc3ccccc3)c3ccccc3)cc2NS(=O)(=O)c2ccc(C)cc2)cc1` [Compound 22ii, N-[4-(benzyloxyimino-phenyl-methyl)-2-(4-toluenesulfonylamino)-phenyl]-4-toluenesulfonamide], the IC50 is 64 µM.

Take `Cc1ccc(S(=O)(=O)Nc2ccc(NS(=O)(=O)c3c(C)noc3C)cc2NS(=O)(=O)c2ccc(C)cc2)cc1` [Compound 22j, 3,5-dimethyl-N-[3,4-bis-(4-toluenesulfonylamino)-phenyl]-isoxazole-4-sulfonamide]: the IC50 is 25 µM.

With `COc1ccc(Oc2ccc(NS(=O)(=O)c3sc(NC(C)=O)nc3C)c(NS(=O)(=O)c3ccc(C)cc3)c2)cc1` [Compound 22q, N-{5-[4-(4-methoxy-phenoxy)-2-(4-toluenesulfonylamino)-phenylsulfamoyl]-4-methyl-thiazol-2-yl}-acetamide], the IC50 is 154 µM.

With `COc1ccc(Oc2ccc(NS(=O)(=O)c3c(C)noc3C)c(NS(=O)(=O)c3ccc(C)cc3)c2)cc1` [Compound 22r, 3,5-dimethyl-N-[4-(4-methoxy-phenoxy)-2-(4-toluenesulfonylamino)-phenyl]-isoxazole-4-sulfonamide], the IC50 amounted to 335 µM.

With `COc1ccc(Oc2ccc(NS(=O)(=O)c3cnc(Cl)c(Br)c3)c(NS(=O)(=O)c3ccc(C)cc3)c2)cc1` [Compound 22t, 5-bromo-6-chloro-N-[4-(4-methoxy-phenoxy)-2-(4-toluenesulfonylamino)-phenyl]-pyridine-3-sulfonamide], the IC50 worked out at 44 µM.

Regarding `COc1ccc(Oc2ccc(NS(=O)(=O)c3ccc(Cl)c4nonc34)c(NS(=O)(=O)c3ccc(C)cc3)c2)cc1` [Compound 22u, 7-chloro-N-[4-(4-methoxy-phenoxy)-2-(4-toluenesulfonylamino)-phenyl]-benzo[1,2,5]oxadiazole-4-sulfonamide], the IC50 turned out to be 20 µM.

Take `CCCCc1ccc(S(=O)(=O)Nc2ccc(Oc3ccc(OC)cc3)cc2NS(=O)(=O)c2ccc(C)cc2)cc1` [Compound 22x, 4-butyl-N-[4-(4-methoxy-phenoxy)-2-(4-toluenesulfonylamino)-phenyl]-benzenesulfonamide]: the IC50 was determined as 36 µM.

Consider `COc1ccc(Oc2ccc(NS(=O)(=O)CCc3cccc4ccccc34)c(NS(=O)(=O)c3ccc(C)cc3)c2)cc1` [Compound 22y, N-[5-(4-methoxy-phenoxy)-2-(2-naphthalen-1-yl-ethanesulfonylamino)-phenyl]-4-toluenesulfonamide], for which the IC50 came out at 20 µM.

`COc1ccc(Oc2ccc(NS(=O)(=O)c3ccc(S(C)(=O)=O)cc3)c(NS(=O)(=O)c3ccc(C)cc3)c2)cc1` [Compound 22z, 4-methanesulfonyl-N-[4-(4-methoxy-phenoxy)-2-(4-toluenesulfonylamino)-phenyl]-benzenesulfonamide]: the IC50 turned out to be 174 µM.

Staying with this test, now noted: Table 3; compound at 15 μg/mL.
For the molecule `Cc1ccc(S(=O)(=O)Nc2ccc(CO)cc2NS(=O)(=O)c2ccc(C)cc2)cc1` [Compound 22l], the “% Inhibition at 15 μg/mL Src (%)” value came to 5%.

The same test, now with this note: Table 3; compound at 15 μg/mL; read-out: % Inhibition at 15 μg/mL Src (%).
Regarding `COc1ccc(Oc2ccc(NS(=O)(=O)c3ccc(C)cc3)c(NS(=O)(=O)c3ccc(C)cc3OC)c2)cc1` [Compound 22hh, 2-methoxy-N-[5-(4-methoxy-phenoxy)-2-(4-toluenesulfonylamino)-phenyl]-4-methyl-benzenesulfonamide], the inhibition at 15 µg/mL is 17%.

In the case of `Cc1ccc(S(=O)(=O)Nc2ccc(NS(=O)(=O)c3cccs3)cc2NS(=O)(=O)c2ccc(C)cc2)cc1` [Compound 22i, N-[3,4-bis-(4-toluenesulfonylamino)-phenyl]-thiophene-2-sulfonamide], the inhibition at 15 µg/mL was determined as 26%.

`Cc1ccc(S(=O)(=O)Nc2ccc(C(=NO)c3ccccc3)cc2NS(=O)(=O)c2ccc(C)cc2)cc1` [Compound 22jj, N-[4-(hydroxyimino-phenyl-methyl)-2-(4-toluenesulfonylamino)-phenyl]-4-toluenesulfonamide]: the inhibition at 15 µg/mL is 16%.

For the molecule `CON=C(c1ccccc1)c1ccc(NS(=O)(=O)c2ccc(C)cc2)c(NS(=O)(=O)c2ccc(C)cc2)c1` [Compound 22kk, N-[4-(methoxyimino-phenyl-methyl)-2-(4-toluenesulfonylamino)-phenyl]-4-toluenesulfonamide], the inhibition at 15 µg/mL came to 23%.

For the molecule `Cc1ccc(S(=O)(=O)Nc2cc(SCc3ccccc3Cl)ccc2NS(C)(=O)=O)cc1` [Compound 22ll, N-[5-(2-chloro-benzylsulfanyl)-2-methanesulfonylamino-phenyl]-4-toluenesulfonamide], the inhibition at 15 µg/mL is 17%.

With `COc1ccc(Oc2ccc(NS(=O)(=O)c3ccc(C)cc3)c(NS(C)(=O)=O)c2)cc1` [Compound 22m, N-[2-methanesulfonylamino-4-(4-methoxy-phenoxy)-phenyl]-4-toluenesulfonamide], the inhibition at 15 µg/mL was found to be 22%.

Take `COc1ccc(Oc2ccc(NS(=O)(=O)c3ccc(C)cc3)c(NS(=O)(=O)c3c(C)noc3C)c2)cc1` [Compound 22n, 3,5-dimethyl-N-[5-(4-methoxy-phenoxy)-2-(4-toluenesulfonylamino)-phenyl]-isoxazole-4-sulfonamide]: the inhibition at 15 µg/mL stood at 5%.

Regarding `Cc1ccc(S(=O)(=O)Nc2ccc(SCc3ccccc3Cl)cc2NS(C)(=O)=O)cc1` [Compound 22nn, N-[4-(2-chloro-benzylsulfanyl)-2-methanesulfonylamino-phenyl]-4-toluenesulfonamide], the inhibition at 15 µg/mL amounted to 21%.

With `COc1ccc(Oc2ccc(NS(=O)(=O)c3ccc(C)cc3)c(NS(=O)(=O)c3cn(C)cn3)c2)cc1` [Compound 22o, N-[5-(4-methoxy-phenoxy)-2-(4-toluenesulfonylamino)-phenyl]-1-methyl-1H-imidazole-4-sulfonamide], the inhibition at 15 µg/mL turned out to be 0%.

Regarding `COc1ccc(Oc2ccc(NS(C)(=O)=O)c(NS(=O)(=O)c3ccc(C)cc3)c2)cc1` [Compound 22p, N-[2-methanesulfonylamino-5-(4-methoxy-phenoxy)-phenyl]-4-toluenesulfonamide], the inhibition at 15 µg/mL amounted to 17%.

`COc1ccc(Oc2ccc(NS(=O)(=O)c3cn(C)cn3)c(NS(=O)(=O)c3ccc(C)cc3)c2)cc1` [Compound 22s, N-[4-(4-methoxy-phenoxy)-2-(4-toluenesulfonylamino)-phenyl]-1-methyl-1H-imidazole-4-sulfonamide]: the inhibition at 15 µg/mL is 3%.

`COc1ccc(Oc2ccc(NS(=O)(=O)c3ccc(-c4ccon4)s3)c(NS(=O)(=O)c3ccc(C)cc3)c2)cc1` [Compound 22v, 5-isoxazol-3-yl-N-[4-(4-methoxy-phenoxy)-2-(4-toluenesulfonylamino)-phenyl]-thiophene-2-sulfonamide]: the inhibition at 15 µg/mL was 22%.

With `COC(=O)c1c(S(=O)(=O)Nc2ccc(Oc3ccc(OC)cc3)cc2NS(=O)(=O)c2ccc(C)cc2)c(C)n(C)c1C` [Compound 22w, methyl 4-[4-(4-methoxy-phenoxy)-2-(4-toluenesulfonylamino)-phenylsulfamoyl]-1,2,5-trimethyl-1H-pyrrole-3-carboxylate], the inhibition at 15 µg/mL came to 6%.

The same test, now with this note: Table 4, Formula III compounds; NI = no inhibition at 100 μg/mL.
For the molecule `COc1ccc(Oc2cc(NS(=O)(=O)c3ccc(C)cc3)c(NS(=O)(=O)c3ccc(C)cc3)cc2C(=O)O)cc1` [Compound 34, 2-(4-methoxy-phenoxy)-4,5-bis-(4-toluenesulfonylamino)-benzoic acid], the half-inhibitory concentration (IC50) was 77 µM.

`COc1ccc(Oc2cc(NS(=O)(=O)c3ccc(C)cc3)c(NS(=O)(=O)c3ccc(C)cc3)cc2C)cc1` [Compound 37, N-[4-(4-methoxy-phenoxy)-5-methyl-2-(4-toluenesulfonylamino)-phenyl]-4-toluenesulfonamide]: the IC50 was 118 µM.

For `Cc1ccc(S(=O)(=O)Nc2cc(F)c(SCc3ccccc3Cl)cc2NS(=O)(=O)c2ccc(C)cc2)cc1` [Compound 38c, N-[4-(2-chloro-benzylsulfanyl)-5-fluoro-2-(4-toluenesulfonylamino)-phenyl]-4-toluenesulfonamide], the IC50 was determined as 2.2 µM.

In the case of `Cc1ccc(S(=O)(=O)Nc2cc(F)c(S(=O)(=O)Cc3ccccc3Cl)cc2NS(=O)(=O)c2ccc(C)cc2)cc1` [Compound 38d, N-[4-(2-chloro-phenylmethanesulfonyl)-5-fluoro-2-(4-toluenesulfonylamino)-phenyl]-4-toluenesulfonamide], the IC50 came to 13 µM.

The test is the same for the next values; noted with them: Table 4; compound at 15 μg/mL; read-out: % Inhibition at 15 μg/mL Src (%).
For `COc1ccc(Oc2cc(NS(=O)(=O)c3ccc(C)cc3)c(NS(=O)(=O)c3ccc(C)cc3)cc2C(F)(F)F)cc1` [Compound 38b, N-[4-(4-methoxy-phenoxy)-2-(4-toluenesulfonylamino)-5-trifluoromethyl-phenyl]-4-toluenesulfonamide], the inhibition at 15 µg/mL is 50%.

The same test, now with this note: compound at 15 μg/mL; read-out: % Inhibition at 15 μg/mL Src %.
In the case of `COc1ccc(Oc2ccc(N)c(NS(=O)(=O)c3ccc(C)cc3)c2)cc1` [Compound 71a, N-[2-amino-5-(4-methoxy-phenoxy)-phenyl]-4-toluenesulfonamide], the inhibition at 15 µg/mL came to 13%.

Regarding `Cc1ccc(C(=O)Nc2cc(NCC3CCCCC3)c([N+](=O)[O-])cc2NC(=O)c2ccc(C)cc2)cc1` [Compound 71aa, N-[4-(cyclohexylmethyl-amino)-5-nitro-2-(4-toluoylamino)-phenyl]-4-toluamide], the inhibition at 15 µg/mL turned out to be 0%.

For `COc1ccc(Oc2ccc(NC(=O)c3ccc(C#N)nc3)c(NS(=O)(=O)c3ccc(C)cc3)c2)cc1` [Compound 71b, 6-cyano-N-[4-(4-methoxy-phenoxy)-2-(4-toluenesulfonylamino)-phenyl]-nicotinamide], the inhibition at 15 µg/mL stood at 0%.
